Laboratory results taken from PubChem BioAssay AID2060622 (Molecular Pharmacology Branch, DTP, NCI, 2025).

Test system: 242566-281-R-J2-PDC complex spheroid viability
Assay: Anticancer human tumor 242566-281-R-J2-PDC patient-derived pancreatic carcinoma cell line growth inhibition [CLK]
Conditions: for IC50: curve of first compound; for viability, T/C: stronger effect = lower value
Outline: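 Multi-cell-type spheroids combined patient-derived tumor cells with HUVEC endothelial cells and human mesenchymal stem cells. Paired agents were dosed in half-log steps down from about clinical Cmax, or from 10 microM where Cmax was unknown.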

[1] = second compound 0.0316 µM, first compound 0.0316 µM
[2] = second compound 0.0316 µM, first compound 0.1 µM
[3] = second compound 0.0316 µM, first compound 0.316 µM
[4] = second compound 0.0316 µM, first compound 1 µM
[5] = second compound 0.1 µM, first compound 0.0316 µM
[6] = second compound 0.1 µM, first compound 0.1 µM
[7] = second compound 0.1 µM, first compound 0.316 µM
[8] = second compound 0.1 µM, first compound 1 µM
[9] = second compound 0.316 µM, first compound 0.0316 µM
[10] = second compound 0.316 µM, first compound 0.1 µM
[11] = second compound 0.316 µM, first compound 0.316 µM
[12] = second compound 0.316 µM, first compound 1 µM
[13] = second compound 1 µM, first compound 0.0316 µM
[14] = second compound 1 µM, first compound 0.1 µM
[15] = second compound 1 µM, first compound 0.316 µM
[16] = second compound 1 µM, first compound 1 µM
[17] = second compound 3.16 µM, first compound 0.0316 µM
[18] = second compound 3.16 µM, first compound 0.1 µM
[19] = second compound 3.16 µM, first compound 0.316 µM
[20] = second compound 3.16 µM, first compound 1 µM
[21] = second compound 10 µM, first compound 0.0316 µM
[22] = second compound 10 µM, first compound 0.1 µM
[23] = second compound 10 µM, first compound 0.316 µM
[24] = second compound 10 µM, first compound 1 µM
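Further: spheroids exposed to compounds for 7 days before readout.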
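Wherever viability, T/C is given: 100% = DMSO vehicle control wells.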

For `CC(CO)NC(=O)c1cc(-c2ccc(Cl)cc2)nn(-c2cnn(C)c2)c1=O` (centres undefined) + CN1CCN(c2cc(C(=O)Nc3cc4cc(-c5cnn(C)c5)ccc4cn3)ccn2)CC1, which IC50 (second compound 0.0316 µM) is on record?
The IC50 was greater than 10000 nM.

And the IC50 (second compound 0.1 µM)?
Its IC50 is greater than 10000 nM.

And the IC50 (second compound 0.316 µM)?
Its IC50 is less than 31.6 nM.

And the IC50 (second compound 1 µM)?
The IC50 was less than 31.6 nM.

What about the IC50 (second compound 3.16 µM) of the same compound?
Its IC50 is less than 31.6 nM.

What about the IC50 (second compound 10 µM) of the same compound?
The IC50 was less than 31.6 nM.

And the viability, T/C [1]?
The viability, T/C was 95.6%.

And the viability, T/C [2]?
The viability, T/C was 117%.

What about the viability, T/C [3] of the same compound?
Its viability, T/C is 129%.

And the viability, T/C [4]?
The viability, T/C was 106%.

What about the viability, T/C (second compound 0.0316 µM, first compound 3.16 µM) of the same compound?
Its viability, T/C is 101%.

And the viability, T/C (second compound 0.0316 µM, first compound 10 µM)?
The viability, T/C was 93.6%.

And the viability, T/C [5]?
The viability, T/C was 93.5%.

And the viability, T/C [6]?
Its viability, T/C is 104%.

What about the viability, T/C [7] of the same compound?
Its viability, T/C is 87.3%.

And the viability, T/C [8]?
The viability, T/C was 94%.

What about the viability, T/C (second compound 0.1 µM, first compound 3.16 µM) of the same compound?
The viability, T/C was 101%.

And the viability, T/C (second compound 0.1 µM, first compound 10 µM)?
The viability, T/C was 72.3%.

And the viability, T/C [9]?
The viability, T/C was 38.2%.

What about the viability, T/C [10] of the same compound?
The viability, T/C was 43%.

What about the viability, T/C [11] of the same compound?
The viability, T/C was 39.9%.

And the viability, T/C [12]?
Its viability, T/C is 36.5%.

And the viability, T/C (second compound 0.316 µM, first compound 3.16 µM)?
Its viability, T/C is 41.5%.

What about the viability, T/C (second compound 0.316 µM, first compound 10 µM) of the same compound?
The viability, T/C was 37.6%.

What about the viability, T/C [13] of the same compound?
Its viability, T/C is 4.91%.

What about the viability, T/C [14] of the same compound?
The viability, T/C was 5.11%.

What about the viability, T/C [15] of the same compound?
The viability, T/C was 5.14%.

And the viability, T/C [16]?
Its viability, T/C is 5.04%.

And the viability, T/C (second compound 1 µM, first compound 3.16 µM)?
Its viability, T/C is 4.52%.

And the viability, T/C (second compound 1 µM, first compound 10 µM)?
Its viability, T/C is 4.45%.

What about the viability, T/C [17] of the same compound?
Its viability, T/C is 6.35%.

What about the viability, T/C [18] of the same compound?
The viability, T/C was 7.68%.

What about the viability, T/C [19] of the same compound?
The viability, T/C was 8.66%.

What about the viability, T/C [20] of the same compound?
The viability, T/C was 7.21%.

What about the viability, T/C (second compound 3.16 µM, first compound 3.16 µM) of the same compound?
The viability, T/C was 7.5%.

And the viability, T/C (second compound 3.16 µM, first compound 10 µM)?
Its viability, T/C is 6.89%.

What about the viability, T/C [21] of the same compound?
The viability, T/C was 2.09%.

What about the viability, T/C [22] of the same compound?
The viability, T/C was 2.51%.

What about the viability, T/C [23] of the same compound?
The viability, T/C was 2.07%.

What about the viability, T/C [24] of the same compound?
The viability, T/C was 2.91%.

What about the viability, T/C (second compound 10 µM, first compound 3.16 µM) of the same compound?
The viability, T/C was 2.05%.

And the viability, T/C (second compound 10 µM, first compound 10 µM)?
The viability, T/C was 0.93%.

How did the IC50 (second compound 0.0316 µM) turn out when `CCN1CCN(Cc2ccc(Nc3ncc(F)c(-c4cc(F)c5nc(C)n(C(C)C)c5c4)n3)nc2)CC1` + CN1CCN(c2cc(C(=O)Nc3cc4cc(-c5cnn(C)c5)ccc4cn3)ccn2)CC1 was run?
The IC50 was greater than 1000 nM.

And the IC50 (second compound 0.1 µM)?
The IC50 was greater than 1000 nM.

And the IC50 (second compound 0.316 µM)?
Its IC50 is less than 3.16 nM.

What about the IC50 (second compound 1 µM) of the same compound?
Its IC50 is less than 3.16 nM.

What about the IC50 (second compound 3.16 µM) of the same compound?
Its IC50 is less than 3.16 nM.

What about the IC50 (second compound 10 µM) of the same compound?
The IC50 was less than 3.16 nM.

And the viability, T/C (second compound 0.0316 µM, first compound 0.00316 µM)?
Its viability, T/C is 89.9%.

And the viability, T/C (second compound 0.0316 µM, first compound 0.01 µM)?
Its viability, T/C is 109%.

What about the viability, T/C [1] of the same compound?
The viability, T/C was 101%.

What about the viability, T/C [2] of the same compound?
The viability, T/C was 109%.

What about the viability, T/C [3] of the same compound?
The viability, T/C was 122%.

And the viability, T/C [4]?
Its viability, T/C is 138%.

What about the viability, T/C (second compound 0.1 µM, first compound 0.00316 µM) of the same compound?
The viability, T/C was 91.7%.

And the viability, T/C (second compound 0.1 µM, first compound 0.01 µM)?
Its viability, T/C is 83.6%.

What about the viability, T/C [5] of the same compound?
Its viability, T/C is 95.5%.

And the viability, T/C [6]?
Its viability, T/C is 96.3%.

And the viability, T/C [7]?
Its viability, T/C is 122%.

And the viability, T/C [8]?
Its viability, T/C is 123%.

What about the viability, T/C (second compound 0.316 µM, first compound 0.00316 µM) of the same compound?
The viability, T/C was 39.4%.

What about the viability, T/C (second compound 0.316 µM, first compound 0.01 µM) of the same compound?
Its viability, T/C is 40.8%.

What about the viability, T/C [9] of the same compound?
Its viability, T/C is 48.7%.

What about the viability, T/C [10] of the same compound?
Its viability, T/C is 54.3%.

And the viability, T/C [11]?
The viability, T/C was 69.4%.

What about the viability, T/C [12] of the same compound?
The viability, T/C was 61.1%.

What about the viability, T/C (second compound 1 µM, first compound 0.00316 µM) of the same compound?
The viability, T/C was 5.41%.

And the viability, T/C (second compound 1 µM, first compound 0.01 µM)?
The viability, T/C was 4.89%.

What about the viability, T/C [13] of the same compound?
Its viability, T/C is 5.53%.

What about the viability, T/C [14] of the same compound?
The viability, T/C was 6.44%.

And the viability, T/C [15]?
The viability, T/C was 9.19%.

What about the viability, T/C [16] of the same compound?
Its viability, T/C is 9.16%.

And the viability, T/C (second compound 3.16 µM, first compound 0.00316 µM)?
The viability, T/C was 6.93%.

What about the viability, T/C (second compound 3.16 µM, first compound 0.01 µM) of the same compound?
Its viability, T/C is 7.07%.

What about the viability, T/C [17] of the same compound?
Its viability, T/C is 6.34%.

And the viability, T/C [18]?
Its viability, T/C is 7.18%.

What about the viability, T/C [19] of the same compound?
The viability, T/C was 8.35%.

What about the viability, T/C [20] of the same compound?
The viability, T/C was 8.64%.

And the viability, T/C (second compound 10 µM, first compound 0.00316 µM)?
Its viability, T/C is 2.36%.

What about the viability, T/C (second compound 10 µM, first compound 0.01 µM) of the same compound?
The viability, T/C was 1.58%.

And the viability, T/C [21]?
The viability, T/C was 1.75%.

And the viability, T/C [22]?
Its viability, T/C is 1.54%.

And the viability, T/C [23]?
The viability, T/C was 1.24%.

What about the viability, T/C [24] of the same compound?
The viability, T/C was 0.71%.
